The test deals with T1, adenylosuccinate synthetase (AdSS) (Helicobacter pylori, UniProt P56137).
T1 construct: gene purA
The test is described as follows: X-ray crystal structure with IMP ([…] A); enzyme inhibition, GTP-competitive, and time-dependent inactivation (IC50^eq […] without GTP). In kind it is biochemical.

Each structure is given as a SMILES string.

T1 sequence (P56137 whole entry): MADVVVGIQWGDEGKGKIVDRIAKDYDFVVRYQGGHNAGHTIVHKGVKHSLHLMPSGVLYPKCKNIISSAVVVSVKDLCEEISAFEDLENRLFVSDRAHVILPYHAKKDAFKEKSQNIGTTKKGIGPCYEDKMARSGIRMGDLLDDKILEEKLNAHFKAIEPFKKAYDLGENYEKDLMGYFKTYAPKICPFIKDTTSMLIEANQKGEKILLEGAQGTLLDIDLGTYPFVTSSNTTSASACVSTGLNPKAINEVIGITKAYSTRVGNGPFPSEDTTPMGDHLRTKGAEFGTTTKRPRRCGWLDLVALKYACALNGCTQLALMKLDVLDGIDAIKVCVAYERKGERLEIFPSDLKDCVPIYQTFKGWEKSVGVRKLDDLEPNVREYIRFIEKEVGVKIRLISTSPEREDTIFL

Molecule `Cc1ncc(COP(=O)(O)O)c(C=O)c1O` [PLP, pyridoxal 5'-phosphate] displayed a Ki of 6.95 µM.
